According to patent publication US20260078122A1, “INDAZOLE COMPOUNDS AS PKMYT1 KINASE INHIBITORS” (Hoffmann-La Roche Inc., priority 2023, published 2026):

Target: T1, recombinant human Myt1 (full length PKMYT1) (Homo sapiens, UniProt Q99640)
T1 sequence (Q99640 1-499): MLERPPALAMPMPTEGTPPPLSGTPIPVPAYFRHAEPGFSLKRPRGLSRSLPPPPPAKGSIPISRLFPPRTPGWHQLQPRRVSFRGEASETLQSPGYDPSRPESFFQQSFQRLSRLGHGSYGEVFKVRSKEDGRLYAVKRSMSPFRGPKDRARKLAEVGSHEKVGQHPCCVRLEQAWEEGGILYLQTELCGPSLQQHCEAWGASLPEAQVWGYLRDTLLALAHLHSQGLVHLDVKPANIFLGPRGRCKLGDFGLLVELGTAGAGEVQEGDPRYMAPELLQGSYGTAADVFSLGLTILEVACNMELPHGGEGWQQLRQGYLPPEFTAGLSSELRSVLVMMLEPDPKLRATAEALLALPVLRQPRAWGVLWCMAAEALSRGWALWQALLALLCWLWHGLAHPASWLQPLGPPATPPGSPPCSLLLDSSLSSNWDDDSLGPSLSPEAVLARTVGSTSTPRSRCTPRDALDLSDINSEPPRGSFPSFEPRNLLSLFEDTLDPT
Assay: ADP-Glo assay (Myt1 kinase activity)

Row | SMILES | IC50
1 | Nc1c(-c2ccc(F)c3[nH]ncc23)c2nc(Cl)c(C3CC3)cc2[nH]c1=O [Example 095, 3-Amino-6-chloro-7-cyclopropyl-4-(7-fluoro-1H-indazol-4-yl)-1H-1,5-naphthyridin-2-one] | < 10 nM
2 | Cc1cc2[nH]c(=O)c(N)c(-c3ccc(F)c4[nH]ncc34)c2nc1OCC(F)(F)F [Example 066, 3-Amino-4-(7-fluoro-1H-indazol-4-yl)-7-methyl-6-(2,2,2-trifluoroethoxy)-1H-1,5-naphthyridin-2-one] | 11.6 nM
3 | Cc1cc2[nH]c(=O)c(N)c(-c3ccc(F)c4[nH]ncc34)c2nc1C(F)(F)F [Example 097, 3-Amino-4-(7-fluoro-1H-indazol-4-yl)-7-methyl-6-(trifluoromethyl)-1H-1,5-naphthyridin-2-one] | 24.9 nM
4 | Cc1cc2[nH]c(=O)c(N)c(-c3ccc(F)c4[nH]ncc34)c2nc1OC(C)C [Example 064, 3-Amino-4-(7-fluoro-1H-indazol-4-yl)-6-isopropoxy-7-methyl-1H-1,5-naphthyridin-2-one] | < 10 nM
5 | Cc1c(C2CC2)ncc2c(-c3ccc(F)c4[nH]ncc34)c(N)c(=O)[nH]c12 [Example 165, 3-amino-7-cyclopropyl-4-(7-fluoro-1H-indazol-4-yl)-8-methyl-1H-1,6-naphthyridin-2-one] | < 10 nM
6 | Cc1c(C2CC2(C)C)cnc2c(-c3ccc(F)c4[nH]ncc34)c(N)c(=O)[nH]c12 (stereo not drawn) [Example 130, 3-Amino-7-(2,2-dimethylcyclopropyl)-4-(7-fluoro-1H-indazol-4-yl)-8-methyl-1H-1,5-naphthyridin-2-one] | 12.3 nM
7 | Cc1ncc(OC2CC2)c2c(-c3ccc(F)c4[nH]ncc34)c(N)c(=O)[nH]c12 [Example 187, 3-Amino-5-(cyclopropoxy)-4-(7-fluoro-1H-indazol-4-yl)-8-methy-1H-1,7-naphthyridin-2-one] | 10.8 nM
8 | Cc1cc2[nH]c(=O)c(N)c(-c3ccc(F)c4[nH]ncc34)c2nc1N1CC2CCC1CN2C (stereo not drawn) [Example 31, 3-Amino-4-(7-fluoro-1H-indazol-4-yl)-7-methyl-6-(5-methyl-2,5-diazabicyclo[2.2.2]octan-2-yl)-1H-1,5-naphthyridin-2-one] | 21.3 nM
9 | COC(C)(C)C#Cc1cc(C)c2[nH]c(=O)c(N)c(-c3ccc(F)c4[nH]ncc34)c2n1 [Example 149, 3-Amino-4-(7-fluoro-1H-indazol-4-yl)-6-(3-methoxy-3-methyl-but-1-ynyl)-8-methyl-1H-1,5-naphthyridin-2-one] | < 10 nM
10 | Cc1cc2[nH]c(=O)c(N)c(-c3ccc(Cl)c4[nH]ncc34)c2nc1C [Example 159, 3-Amino-4-(7-chloro-1H-indazol-4-yl)-6,7-dimethyl-1H-1,5-naphthyridin-2-one] | < 10 nM
11 | Cc1cc2[nH]c(=O)c(N)c(-c3ccc(F)c4[nH]ncc34)c2nc1C1CC1 [Example 18, 3-Amino-6-cyclopropyl-4-(7-fluoro-1H-indazol-4-yl)-7-methyl-1H-1,5-naphthyridin-2-one] | 10.4 nM
12 | Cc1c(C2CC2)nc(Cl)c2c(-c3ccc(F)c4[nH]ncc34)c(N)c(=O)[nH]c12 [Example 162, 3-Amino-5-chloro-7-cyclopropyl-4-(7-fluoro-1H-indazol-4-yl)-8-methyl-1H-1,6-naphthyridin-2-one] | < 10 nM
13 | Cc1cc2[nH]c(=O)c(N)c(-c3ccc(F)c4[nH]ncc34)c2nc1-c1nccs1 [Example 153, 3-Amino-4-(7-fluoro-1H-indazol-4-yl)-7-methyl-6-thiazol-2-yl-1H-1,5-naphthyridin-2-one] | 11.8 nM
14 | CCc1cnc(C)c2[nH]c(=O)c(N)c(-c3ccc(F)c4[nH]ncc34)c12 [Example 178, 3-Amino-5-ethyl-4-(7-fluoro-1H-indazol-4-yl)-8-methyl-1H-1,7-naphthyridin-2-one] | 18.1 nM
15 | COc1cc(C)cc2[nH]c(=O)c(N)c(-c3ccc(F)c4[nH]ncc34)c12 [Example 102, 3-Amino-4-(7-fluoro-1H-indazol-4-yl)-5-methoxy-7-methyl-1H-quinolin-2-one] | 16 nM
16 | COCC#Cc1nc2c(-c3ccc(F)c4[nH]ncc34)c(N)c(=O)[nH]c2cc1C [Example 071, 3-Amino-4-(7-fluoro-1H-indazol-4-yl)-6-(3-methoxyprop-1-ynyl)-7-methyl-1H-1,5-naphthyridin-2-one] | 13.1 nM
17 | Nc1c(-c2ccc(F)c3[nH]ncc23)c2ncc(N3CCOCC3)cc2[nH]c1=O [Example 19, 3-Amino-4-(7-fluoro-1H-indazol-4-yl)-7-morpholino-1H-1,5-naphthyridin-2-one] | 30.3 nM
18 | CSc1cnc2c(-c3ccc(F)c4[nH]ncc34)c(N)c(=O)[nH]c2c1C [Example 141, 3-Amino-4-(7-fluoro-1H-indazol-4-yl)-8-methyl-7-methylsulfanyl-1H-1,5-naphthyridin-2-one] | 10.4 nM
19 | CCOc1cnc2c(-c3ccc(F)c4[nH]ncc34)c(N)c(=O)[nH]c2c1C [Example 140, 3-Amino-7-ethoxy-4-(7-fluoro-1H-indazol-4-yl)-8-methyl-1H-1,5-naphthyridin-2-one] | 11.8 nM
20 | Cc1cc2[nH]c(=O)c(N)c(-c3ccc(F)c4[nH]ncc34)c2nc1OCC1(C#N)CC1 [Example 58, 1-[[7-Amino-8-(7-fluoro-1H-indazol-4-yl)-3-methyl-6-oxo-5H-1,5-naphthyridin-2-yl]oxymethyl]cyclopropanecarbonitrile] | < 10 nM
21 | Cc1cnc2c(-c3ccc(F)c4[nH]ncc34)c(N)c(=O)[nH]c2c1Cl [Example 53, 3-Amino-8-chloro-4-(7-fluoro-1H-indazol-4-yl)-7-methyl-1H-1,5-naphthyridin-2-one] | 10.7 nM
22 | Cc1cc2[nH]c(=O)c(N)c(-c3ccc(F)c4[nH]ncc34)c2nc1N1CC2(CN(C)C2)C1 [Example 27, 3-Amino-4-(7-fluoro-1H-indazol-4-yl)-7-methyl-6-(6-methyl-2,6-diazaspiro[3.3]heptan-2-yl)-1H-1,5-naphthyridin-2-one] | 21.2 nM
23 | C=Cc1cnc2c(-c3ccc(F)c4[nH]ncc34)c(N)c(=O)[nH]c2c1C [Example 123, 3-Amino-4-(7-fluoro-1H-indazol-4-yl)-8-methyl-7-vinyl-1H-1,5-naphthyridin-2-one] | < 10 nM
24 | Cc1cc2[nH]c(=O)c(N)c(-c3ccc(F)c4[nH]ncc34)c2cc1C1CCN(CC(F)(F)F)CC1 [Example 106, 3-Amino-4-(7-fluoro-1H-indazol-4-yl)-7-methyl-6-[1-(2,2,2-trifluoroethyl)-4-piperidyl]-1H-quinolin-2-one] | 14.5 nM
25 | Cc1c(C2CC2)nc2c(-c3ccc(F)c4[nH]ncc34)c(N)c(=O)[nH]c2c1C1CC1 [Example 114, 3-Amino-6,8-dicyclopropyl-4-(7-fluoro-1H-indazol-4-yl)-7-methyl-1H-1,5-naphthyridin-2-one] | 13.6 nM
26 | Cc1c(Br)cnc2c(-c3ccc(F)c4[nH]ncc34)c(N)c(=O)[nH]c12 [Example 115, 3-Amino-7-bromo-4-(7-fluoro-1H-indazol-4-yl)-8-methyl-1H-1,5-naphthyridin-2-one] | < 10 nM
27 | COC(=O)C1CC(Oc2nc3c(-c4ccc(F)c5[nH]ncc45)c(N)c(=O)[nH]c3cc2C)C1 (stereo not drawn) [Example 067, Methyl 3-[[7-amino-8-(7-fluoro-1H-indazol-4-yl)-3-methyl-6-oxo-5H-1,5-naphthyridin-2-yl]oxy]cyclobutanecarboxylate] | 24.4 nM
